Assays:
Assay type in all cases: cell-based, mouse
[1] = test system: mIL-5 mRNA in primary LN cells; experiment: mIL-5 mRNA by real-time PCR in stimulated LN cells of immunized (SJL/J×BALB/C)F1 mice (Example I); settings: for mIL-5 mRNA Level: Experiment 1, GA-immunized (SJL/J×BALB/C)F1; for mIL-5 mRNA: not normalized to a reference gene
Description: For each of the three experiments summarized in Table 1, female (SJL/J×BALB/C) F1 hybrid (Jackson Laboratory) mice were immunized by footpad injection with either 250 μg GMA (Mylan Pharmaceuticals, Inc.) and CFA (Sigma Aldrich), or Mannitol and CFA (as a negative control). The GA solution was diluted to 5 mg/mL with Dulbecco's Phosphate-buffered saline. A dose solution was then prepared by mixing the diluted GA solution (5 mg/mL) and CFA (1:1) until well-emulsified. Each mouse received a total injection volume of 0.1 mL (250 μg GA). Animals were immunized on Day 0. Immunized animals were sacrificed via cervical dislocation on Day 10 following immunization. […] The LN were washed 3 times with −5 mL of RPMI medium, and the LN cells isolated by pressing the LN with a syringe plunger. […] The cell suspension was centrifuged at about 200×g for 10 minutes at about 4° C. and re-suspended in ice cold enriched DCCM-1 medium. The LN cells (2.5×10^6 cells/cm^2) were plated in the wells of a 48-well tissue culture plate and stimulated with GA or controls.
Expression of cytokine mRNA was quantitatively analyzed using a Real-Time PCR system (7500, Applied Biosystems).
(DCCM1 from Beit Haemek Ltd.; Cat. No. 05 010 1A). There was no MBP treatment for the 2-hour groups.
Group 1B animals were female (SJL/J×BALB/C) F1 hybrid (Jackson Laboratory) mice immunized by footpad injection with either 250 μg GA and CFA, or Mannitol and CFA (as a negative control). A dose solution was prepared by mixing a diluted GA solution (5 mg/mL) and CFA (1:1). Each mouse received a total injection volume of […] (250 μg GA). Animals were immunized on Day 0. Immunized animals were sacrificed via cervical dislocation on Day 10 following immunization. Lymph nodes from immunized mice were removed and isolated. LN cells (2.5×10^6 cells/cm^2) were plated in the wells of a 48-well tissue culture plate for stimulation with GA.
Expression of cytokine mRNA was quantitatively analyzed 4 and 6 hours after using a Real-Time PCR system (7500, Applied Biosystems).

[2] = test system: IL-2 secreted by LN cells; experiment: IL-2 secretion by GA-stimulated LN cells, MSD 9-plex ELISA (Example II); settings: 21 hr
[3] = test system: IFN-γ mRNA in LN cells; experiment: IFN-γ mRNA by real-time PCR in LN cells of GA-immunized CD-1, BALB/cByJ, SJL/J mice (Example III); settings: stimulation 2.5 μg/mL, 6 hours
Description: (§1) On Day 0, mice were immunized with 250 μg GA (GMA, Mylan Pharmaceuticals, Inc.) and CFA. The GA solution (20 mg/mL) was diluted with Dulbecco's Phosphate-Buffered Saline to 5 mg/mL. The dosing formulation consisted of equal volumes of the diluted GA solution (5 mg/mL) and CFA solution, mixed until well-emulsified. Animals were weighed and allocated to groups. Animals were dosed by injection into four footpads. The injection volume per animal was 0.1 mL (about 10 μL into each front footpad, and 40 μL into each hind footpad).
(§2) Immunized animals were euthanized by cervical dislocation on Day 10 post-immunization. Lymph node cells were isolated from animals and treated with Myelin Basic Protein (MBP, a negative control), Concanavalin A (ConA, a positive control) or GA as shown in Table 16. Lymph nodes in the axillary and popliteal regions were removed aseptically in a purifier clean bench. […] The LN were then washed 3 times with −5 mL of RPMI medium, and isolated by pressing the LN with a syringe plunger. […] The cell suspension was centrifuged at about 200×g for 10 minutes at about 4° C. and re-suspended in ice cold enriched DCCM-1 medium. Cells were seeded in 96-well tissue culture plates.
(§3) LN cells isolated from GA-immunized animals were stimulated with GA (GMA, Mylan Pharmaceuticals, Inc.) at concentrations as indicated in Tables 16 and 17. A positive control was prepared by treating LN cells with 2.5 μg/mL concavalin A (ConA, a non-specific T cell stimulant). Myelin basic protein (MBP, 10 μg/mL) and enriched DCCM-1 medium served as negative controls. The cells from all groups each were stimulated with the same GA lot. Each reaction was set up in triplicate.
(§4) After incubation at about 37° C. in a humidified CO2 incubator for 6 hours, the cells were lysed for total RNA isolation. Total RNA was isolated from treated LN cells using SV 96 Total RNA Isolation System according to the manufacturer's protocol (Promega, Cat. #Z3500). Cells were washed once with Phosphate Buffered Saline (PBS) and lysed in RNA lysis buffer. The lysate was transferred to wells of the SV 96 binding plate. Samples were washed with RNA wash solution and treated with DNase. Total RNA was eluted with nuclease-free water from the binding plate.
(§5) After the reverse transcriptase reaction was completed, cDNA samples were used directly for real-time PCR to measure the response biomarker mRNA levels produced by the stimulated cells. […] All probes for target genes contained FAM dye, and probes for the internal control contained VIC®/MGB dye. Samples will be prepared and run in 96-well plates using a Real-Time PCR system (7500, Life Technologies). This system allows direct detection of PCR-product formation by measuring the increase in fluorescent emission continuously during the PCR reaction. A relative quantitation method was used to analyze changes in mouse IL-2, IL-4, IL-5, IL-10, IL-13, IFN-γ and TNF-α expression in GA-treated samples relative to the untreated control (enriched DCCM-1 treated) samples. The Real-Time PCR program was:
(§6) The levels of mouse cytokine amplicons (IL-2, IL-4, IL-5, IL-10, IL-13, mIFN-γ and TNF-α) were normalized to internal probe levels (GAPDH) from the same samples. The following equations were used to calculate the relative increase in response to GA stimulation compared to the control sample: ΔCT=CT_target−CT_reference ΔΔCT=−ΔCT_Treated−CT_VC

[4] = test system: IL-5 mRNA in LN cells; experiment: IL-5 mRNA by real-time PCR in LN cells of GA-immunized CD-1, BALB/cByJ, SJL/J mice (Example III); settings: stimulation 2.5 μg/mL, 6 hours
Description: as §1, §2, §3, §4, §5, §6

[5] = test system: IL-10 mRNA in LN cells; experiment: IL-10 mRNA by real-time PCR in LN cells of GA-immunized CD-1, BALB/cByJ, SJL/J mice (Example III); settings: stimulation 2.5 μg/mL, 6 hours
Description: as §1, §2, §3, §4, §5, §6

[6] = Group 2C: BALB/cByJ, GA-immunized

## Concanavalin A [ConA, reference compound]
[1]; 2 hour post stimulation, GA 10, ConA 2.5 μg/mL
  mIL-5 mRNA Level: 3.6 fold change vs control
[1]; 4 hour post stimulation, GA 10, MBP 10, ConA 2.5 μg/mL
  mIL-5 mRNA Level: 17.1 fold change vs control
[1]; 6 hour post stimulation, GA 10, MBP 10, ConA 2.5 μg/mL
  mIL-5 mRNA Level: 13.1 fold change vs control
[1]; 24 hour post stimulation, GA 10, MBP 10, ConA 2.5 μg/mL
  mIL-5 mRNA Level: 0.5 fold change vs control
[1]; Group 1B (GA + CFA), 4 hours post-stimulation, GA 10, MBP 10, ConA 2.5 μg/mL
  mIL-5 mRNA: 20.4 fold change vs control
[1]; Group 1B (GA + CFA), 6 hours post-stimulation, GA 10, MBP 10, ConA 2.5 μg/mL
  mIL-5 mRNA: 26.7 fold change vs control
[1]; Group 2B (Mannitol + CFA), 4 hours post-stimulation, GA 10, MBP 10, ConA 2.5 μg/mL
  mIL-5 mRNA: 16.6 fold change vs control
[1]; Group 2B (Mannitol + CFA), 6 hours post-stimulation, GA 10, MBP 10, ConA 2.5 μg/mL
  mIL-5 mRNA: 36.5 fold change vs control
[2]; BALB/cByJ, immunized GA Lower Limb
  IL-2 secretion response ratio (treated cell medium to control DCCM1 medium): 283.65
[2]; C57BL10J, immunized GA Intraplantar
  IL-2 secretion response ratio (treated cell medium to control DCCM1 medium): 40.09
[2]; C57BL10J, immunized GA Lower Limb
  IL-2 secretion response ratio (treated cell medium to control DCCM1 medium): 31.11
[2]; CD-1, immunized GA Lower Limb
  IL-2 secretion response ratio (treated cell medium to control DCCM1 medium): 19.64
[3]; Group 1C: CD-1, GA-immunized
  IFN-γ mRNA Expression: 4.0 fold change vs control
[3]; [6]
  IFN-γ mRNA Expression: 1.4 fold change vs control
[3]; Group 3C: SJL/J, GA-immunized
  IFN-γ mRNA Expression: 1.4 fold change vs control
[4]; Group 1C: CD-1, GA-immunized
  IL-5 mRNA Expression: 19.1 fold change vs control
[4]; [6]
  IL-5 mRNA Expression: 9.1 fold change vs control
[4]; Group 3C: SJL/J, GA-immunized
  IL-5 mRNA Expression: 9.7 fold change vs control
[5]; Group 1C: CD-1, GA-immunized
  IL-10 mRNA Expression: 0.4 fold change vs control
[5]; [6]
  IL-10 mRNA Expression: 0.9 fold change vs control
[5]; Group 3C: SJL/J, GA-immunized
  IL-10 mRNA Expression: 0.4 fold change vs control
